In patent US9067871B2, “Aminotetraline derivatives, pharmaceutical compositions containing them, and their use in therapy” (ABBVIE DEUTSCHLAND GMBH & CO KG, priority 2009, dated 2015):
Structures can show the parent of a compound that is named as a salt.

Target: human GlyT1c transporter (Homo sapiens (Human), UniProt P48067)
Experiment: Radioligand binding assay using recombinant CHO cell membranes expressing human GlyT1
Conditions: human GlyT1c-expressing CHO cell membranes; hydrochloride; read-out: radioligand binding Kiapp
Source text: 2. Radioligand binding assays using recombinant CHO cell membranes expressing human GlyT1: […]

Sequence of human GlyT1c transporter (P48067 whole entry): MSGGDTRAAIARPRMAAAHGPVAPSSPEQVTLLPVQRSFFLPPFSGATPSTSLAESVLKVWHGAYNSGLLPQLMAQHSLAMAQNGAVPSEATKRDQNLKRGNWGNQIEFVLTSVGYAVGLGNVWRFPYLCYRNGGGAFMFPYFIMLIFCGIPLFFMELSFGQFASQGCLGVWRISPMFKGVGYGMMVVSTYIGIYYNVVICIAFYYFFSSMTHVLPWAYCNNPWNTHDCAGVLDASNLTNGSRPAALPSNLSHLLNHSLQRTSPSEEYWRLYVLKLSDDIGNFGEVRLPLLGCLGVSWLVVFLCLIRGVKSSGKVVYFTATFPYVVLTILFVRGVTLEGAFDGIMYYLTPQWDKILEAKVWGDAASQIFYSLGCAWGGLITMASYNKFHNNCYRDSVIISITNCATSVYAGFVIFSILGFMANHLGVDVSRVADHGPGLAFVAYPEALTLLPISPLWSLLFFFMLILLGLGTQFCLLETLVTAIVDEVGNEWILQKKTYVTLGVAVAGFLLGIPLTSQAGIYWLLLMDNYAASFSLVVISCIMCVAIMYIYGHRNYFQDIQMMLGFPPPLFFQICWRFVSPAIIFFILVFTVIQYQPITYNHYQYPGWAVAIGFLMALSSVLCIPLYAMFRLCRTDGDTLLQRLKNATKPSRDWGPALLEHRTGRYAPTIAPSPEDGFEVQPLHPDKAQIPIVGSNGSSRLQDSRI

For `Cn1cnc(S(=O)(=O)NCCOc2ccc3c(c2)C(Cc2ccccc2)C(N2CCCC2)CC3)c1` (single isomer, unassigned; (+)) [Example 118, (+)-N-(2-(8-benzyl-7-(pyrrolidin-1-yl)-5,6,7,8-tetrahydronaphthalen-2-yloxy)ethyl)-1-methyl-1H-imidazole-4-sulfonamide hydrochloride], the Ki was ≤ 100 nM.
With `Cn1cnc(S(=O)(=O)NCCOc2ccc3c(c2)C(Cc2ccccc2)C(N2CCCC2)CC3)c1` (single isomer, unassigned; (-)) [Example 117, (−)-N-(2-(8-benzyl-7-(pyrrolidin-1-yl)-5,6,7,8-tetrahydronaphthalen-2-yloxy)ethyl)-1-methyl-1H-imidazole-4-sulfonamide hydrochloride] the Ki was ≤ 10 nM.

Same assay, conditions: human GlyT1c-expressing CHO cell membranes; read-out: radioligand binding Kiapp

`O=S(=O)(CC1CC1)NCCOc1ccc2c(c1)C(Cc1ccccc1)C(N1CCC1)CC2` (single isomer, unassigned; (-)) [Example 143, (−)-N-(2-(7-(azetidin-1-yl)-8-benzyl-5,6,7,8-tetrahydronaphthalen-2-yloxy)ethyl)-1-cyclopropylmethanesulfonamide] and `CNC1CCc2ccc(OCCNS(=O)(=O)CC3CC3)cc2C1Cc1cccc(F)c1` (single isomer, unassigned; enantiomer 1) [Example 240, Enantiomer 1 of 1-cyclopropyl-N-(2-{[8-(3-fluorobenzyl)-7-(methylamino)-5,6,7,8-tetrahydronaphthalen-2-yl]oxy}ethyl)methanesulfonamide hydrochloride] cannot be ordered by Ki: ≤ 10 nM for the first, ≤ 10 nM for the second.

`CNC1CCc2ccc(CNS(=O)(=O)C3CCC3)cc2C1Cc1ccccc1` (single isomer, unassigned; enantiomer 1) [Example 193, Enantiomer 1 of N-{[8-benzyl-7-(methylamino)-5,6,7,8-tetrahydronaphthalen-2-yl]methyl}cyclobutanesulfonamide hydrochloride] and `Cn1cnc(S(=O)(=O)NCc2ccc3c(c2)C(Cc2ccccc2)C(N2CCC2)CC3)c1` (single isomer, unassigned; enantiomer 1) [Example 252, Enantiomer 1 of N-{[7-(azetidin-1-yl)-8-benzyl-5,6,7,8-tetrahydronaphthalen-2-yl]methyl}-1-methyl-1H-imidazole-4-sulfonamide] cannot be ordered by Ki: ≤ 10 nM for the first, ≤ 10 nM for the second.

`Cn1cnc(S(=O)(=O)NCCOc2ccc3c(c2)C(Cc2ccccc2)C(N)CC3)c1` (single isomer, unassigned; enantiomer 1) [Example 238, Enantiomer 1 of N-(2-{[7-amino-8-benzyl-5,6,7,8-tetrahydronaphthalen-2-yl]oxy}ethyl)-1-methyl-1H-imidazole-4-sulfonamide hydrochloride] and `CN(CCOc1ccc2c(c1)C(Cc1ccccc1)C(N)CC2)S(=O)(=O)c1cn(C)cn1` (stereo not drawn) [Example 98, 1-Methyl-1H-imidazole-4-sulfonic acid [2-(7-amino-8-benzyl-5,6,7,8-tetrahydronaphthalen-2-yloxy)-ethyl]-methyl-amide hydrochloride] cannot be ordered by Ki: ≤ 10 nM for the first, ≤ 1000 nM for the second.

`CNC1CCc2ccc(OCCNS(=O)(=O)c3ccn(C)c3)cc2C1Cc1cc(F)cc(F)c1` (single isomer, unassigned; enantiomer 1) [Example 241, Enantiomer 1 of N-(2-{[8-(3,5-difluorobenzyl)-7-(methylamino)-5,6,7,8-tetrahydronaphthalen-2-yl]oxy}ethyl)-1-methyl-1H-pyrrole-3-sulfonamide hydrochloride] and `CNC1CCc2ccc(OCCNS(=O)(=O)CC3CC3)cc2C1Cc1cc(F)cc(F)c1` (single isomer, unassigned; enantiomer 1) [Example 245, Enantiomer 1 of 1-cyclopropyl-N-(2-{[8-(3,5-difluorobenzyl)-7-(methylamino)-5,6,7,8-tetrahydronaphthalen-2-yl]oxy}ethyl)methanesulfonamide hydrochloride] cannot be ordered by Ki: ≤ 100 nM for the first, ≤ 1000 nM for the second.

`O=S(=O)(NCc1ccc2c(c1)C(Cc1ccccc1)C(N1CCC1)CC2)c1ccccn1` (single isomer, unassigned; enantiomer 1) [Example 253, Enantiomer 1 of N-{[7-(azetidin-1-yl)-8-benzyl-5,6,7,8-tetrahydronaphthalen-2-yl]methyl}pyridine-2-sulfonamide] and `O=S(=O)(NCc1ccc2c(c1)C(Cc1ccccc1)C(N1CCC1)CC2)c1cccs1` (single isomer, unassigned; enantiomer 1) [Example 255, Enantiomer 1 of N-{[7-(azetidin-1-yl)-8-benzyl-5,6,7,8-tetrahydronaphthalen-2-yl]methyl}thiophene-2-sulfonamide] cannot be ordered by Ki: ≤ 1000 nM for the first, ≤ 1000 nM for the second.

`Cn1cc(S(=O)(=O)NCc2ccc3c(c2)C(Cc2ccccc2)C(N2CCC2)CC3)cn1` (single isomer, unassigned; enantiomer 1) [Example 254, Enantiomer 1 of N-{[7-(azetidin-1-yl)-8-benzyl-5,6,7,8-tetrahydronaphthalen-2-yl]methyl}-1-methyl-1H-pyrazole-4-sulfonamide] and `CN(CCOc1ccc2c(c1)C(Cc1ccc(Cl)c(Cl)c1)C(N1CCCC1)CC2)S(=O)(=O)c1cnn(C)c1` (stereo not drawn) [Example 89, 1-Methyl-1H-pyrazole-4-sulfonic acid {2-[8-(3,4-dichloro-benzyl)-7-pyrrolidin-1-yl-5,6,7,8-tetrahydro-naphthalen-2-yloxy]-ethyl}-methyl-amide hydrochloride] cannot be ordered by Ki: ≤ 10 nM for the first, ≤ 100 nM for the second.

`CNC1CCc2ccc(OCCNS(=O)(=O)CC3CC3)cc2C1Cc1cccc(F)c1` (single isomer, unassigned; enantiomer 2) [Example 239, Enantiomer 2 of C-cyclopropyl-N-{2-[8-(3-fluoro-benzyl)-7-methylamino-5,6,7,8-tetrahydronaphthalen-2-yloxy]-ethyl}-methanesulfonamide hydrochloride] and `CNC1CCc2ccc(OCCNS(=O)(=O)CC3CC3)cc2C1Cc1cc(F)cc(F)c1` (single isomer, unassigned; enantiomer 2) [Example 244, Enantiomer 2 of 1-cyclopropyl-N-(2-{[8-(3,5-difluorobenzyl)-7-(methylamino)-5,6,7,8-tetrahydronaphthalen-2-yl]oxy}ethylmethanesulfonamide hydrochloride] cannot be ordered by Ki: ≤ 1000 nM for the first, ≤ 10 nM for the second.

`CNC1CCc2ccc(OCCNS(=O)(=O)c3ccn(C)c3)cc2C1Cc1cc(F)cc(F)c1` (single isomer, unassigned; enantiomer 2) [Example 242, Enantiomer 2 of N-(2-{[8-(3,5-difluorobenzyl)-7-(methylamino)-5,6,7,8-tetrahydronaphthalen-2-yl]oxy}ethyl)-1-methyl-1H-pyrrole-3-sulfonamide hydrochloride] and `CC(C)S(=O)(=O)NCCOc1ccc2c(c1)C(Cc1ccc(Cl)c(Cl)c1)C(N)CC2` (stereo not drawn) [Example 91, Propane-2-sulfonic acid {2-[7-amino-8-(3,4-dichloro-benzyl)-5,6,7,8-tetrahydronaphthalen-2-yloxy]-ethyl}-amide hydrochloride] cannot be ordered by Ki: ≤ 10 nM for the first, ≤ 100 nM for the second.

`NC1CCc2ccc(OCCNS(=O)(=O)C3CCCCC3)cc2C1Cc1ccc(Cl)c(Cl)c1` (stereo not drawn) [Example 85, Cyclohexanesulfonic acid {2-[7-amino-8-(3,4-dichloro-benzyl)-5,6,7,8-tetrahydro-naphthalen-2-yloxy]-ethyl}-amide hydrochloride] and `O=S(=O)(NCCOc1ccc2c(c1)C(Cc1ccc(Cl)c(Cl)c1)C(N1CCCC1)CC2)C1CCC1` (stereo not drawn) [Example 88, Cyclobutanesulfonic acid {2-[8-(3,4-dichloro-benzyl)-7-pyrrolidin-1-yl-5,6,7,8-tetrahydronaphthalen-2-yloxy]-ethyl}-amide hydrochloride] cannot be ordered by Ki: ≤ 1000 nM for the first, ≤ 100 nM for the second.

`C[Si](C)(C)CCS(=O)(=O)NCCOc1ccc2c(c1)C(Cc1ccc(Cl)c(Cl)c1)C(N)CC2` (stereo not drawn) [Example 86, 2-Trimethylsilanyl-ethanesulfonic acid {2-[7-amino-8-(3,4-dichloro-benzyl)-5,6,7,8-tetrahydro-naphthalen-2-yloxy]-ethyl}-amide hydrochloride] and `CCCCS(=O)(=O)NCCOc1ccc2c(c1)C(Cc1ccc(Cl)c(Cl)c1)C(N)CC2` (stereo not drawn) [Example 90, Butane-1-sulfonic acid {2-[7-amino-8-(3,4-dichloro-benzyl)-5,6,7,8-tetrahydro-naphthalen-2-yloxy]-ethyl}-amide hydrochloride] cannot be ordered by Ki: ≤ 10000 nM for the first, ≤ 1000 nM for the second.

`Cc1cc(CS(=O)(=O)NCCOc2ccc3c(c2)C(Cc2ccc(Cl)c(Cl)c2)C(N)CC3)no1` (stereo not drawn) [Example 87, N-{2-[7-Amino-8-(3,4-dichloro-benzyl)-5,6,7,8-tetrahydro-naphthalen-2-yloxy]-ethyl}-C-(5-methyl-isoxazol-3-yl)-methanesulfonamide hydrochloride] and `NC1CCc2ccc(OCCNS(=O)(=O)CC3CC3)cc2C1Cc1ccc(Cl)c(Cl)c1` (stereo not drawn) [Example 95, N-{2-[7-Amino-8-(3,4-dichloro-benzyl)-5,6,7,8-tetrahydro-naphthalen-2-yloxy]-ethyl}-C-cyclopropyl-methanesulfonamide hydrochloride] cannot be ordered by Ki: ≤ 10000 nM for the first, ≤ 10 nM for the second.

`CCOCCS(=O)(=O)NCCOc1ccc2c(c1)C(Cc1ccc(Cl)c(Cl)c1)C(N)CC2` (stereo not drawn) [Example 93, 2-Ethoxy-ethanesulfonic acid {2-[7-amino-8-(3,4-dichloro-benzyl)-5,6,7,8-tetrahydronaphthalen-2-yloxy]-ethyl}-amide hydrochloride] and `CN(CCOc1ccc2c(c1)C(Cc1ccc(Cl)c(Cl)c1)C(N1CCCC1)CC2)S(=O)(=O)C1CCC1` (stereo not drawn) [Example 94, Cyclobutanesulfonic acid {2-[8-(3,4-dichloro-benzyl)-7-pyrrolidin-1-yl-5,6,7,8-tetrahydronaphthalen-2-yloxy]-ethyl}-methyl-amide hydrochloride] cannot be ordered by Ki: ≤ 1000 nM for the first, ≤ 100 nM for the second.

Same assay, conditions: human GlyT1c-expressing CHO cell membranes; succinate; read-out: radioligand binding Kiapp

`O=S(=O)(CC1CC1)NCCOc1ccc2c(c1)C(Cc1ccccc1)C(N1CCC1)CC2` (single isomer, unassigned; (+)) [Example 144, (+)-N-(2-(7-(azetidin-1-yl)-8-benzyl-5,6,7,8-tetrahydronaphthalen-2-yloxy)ethyl)-1-cyclopropylmethanesulfonamide succinate] was tested, and the Ki was ≤ 1000 nM.
